pIC50: −log10 of the molar value. Values after ≈ are worked out from the molar mass of the structure shown.
Tests used:
[1] = test system: E. coli (ATCC 8739), B. subtilis (ATCC 6633), P. aeruginosa (ATCC 9027), S. aureus (ATCC 6538P), H. pylori (ATCC43504), C. albicans (ATCC 200498); assay type: cell-based
[2] = test system: large panel of bacteria including Gram+ and Gram- bacteria and Mycobacterium as well as fungi associated to plant infection; assay type: cell-based
[3] = test system: B. cepacia; test: microbe, parasite or virus in culture; assay type: cell-based; conditions: Burkholderia cepacia, read-out: Minimal Inhibitory Concentration (MIC)
[4] = test system: B. mallei; test: microbe, parasite or virus in culture; assay type: cell-based; conditions: Burkholderia mallei, read-out: Minimal Inhibitory Concentration (MIC)
[5] = test system: B. pseudomallei; test: microbe, parasite or virus in culture; assay type: cell-based; conditions: Burkholderia pseudomallei, read-out: Minimal Inhibitory Concentration (MIC)
[6] = test system: Pseudomonas syringae (DSM 10604); test: microbe, parasite or virus in culture; assay type: cell-based; conditions: DSM10604, read-out: Minimal Inhibitory Concentration (MIC)
[7] = test system: Streptomyces roietensis (DSM 101729); test: microbe, parasite or virus in culture; assay type: cell-based; conditions: DSM101729, read-out: Minimal Inhibitory Concentration (MIC)
[8] = test system: human cells A498, BEAS-2B, Caco-2, HaCaT, HepG2, HUVEC, IMR90, N87
[9] = test system: human liver cell line HepG2 (ATCC HB-8065); test: cells; conditions: HepG2, 48 h, read-out: IC50 on the viability of HepG2 cells
[10] = test system: human liver cell line HepG2 (ATCC HB-8065)
[11] = test system: P. aeruginosa (ATCC 9027); assay type: cell-based, Pseudomonas aeruginosa
[12] = test system: Erwina cacticida; conditions: cited from earlier work
[13] = test system: Phoma medicaginis; conditions: cited from earlier work

## CC(=O)Nc1ccc2c(c1)C(=O)/C(=C/c1ccccc1)O2
other
  melting point: 241 °C

## CC(=O)Nc1ccc2c(c1)C(=O)/C(=C/c1cccc(OCc3ccccc3)c1)O2 [A7, (Z)-N-(2-(3-(benzyloxy)benzylidene)-3-oxo-2,3-dihydrobenzofuran-5-yl)acetamide]
[1]
  antimicrobial activity on tested strains (ranking): the more active
[2]
  antimicrobial activity, spectrum: confirmed the activity
[3]
  MIC: 3.12 to 12.5 µM (≈ 1.2 to 4.82 µg/mL)
[4]
  MIC: 1.5 to 12.5 µM (≈ 0.578 to 4.82 µg/mL)
[5]
  MIC: 1.5 to 12.5 µM (≈ 0.578 to 4.82 µg/mL)
[6]
  MIC: 1.5 to 3.12 µM (≈ 0.578 to 1.2 µg/mL)
[7]
  MIC: 6.25 to 12.5 µM (≈ 2.41 to 4.82 µg/mL)
[8]
  Therapeutic index (TI) or safe factor (SF): 38-4017
  mean of TI/SF: 370

## CC(=O)Nc1ccc2c(c1)C(=O)/C(=C/c1ccc(OCc3ccccc3)c(OCc3ccccc3)c1)O2 [AD-1-49, (Z)-N-(2-(3,4-bis(benzyloxy)benzylidene)-3-oxo-2,3-dihydrobenzofuran-5-yl)acetamide]
[9]
  pIC50: < 3.60

## COc1cccc(/C=C2\Oc3ccc(C(=O)O)cc3C2=O)c1 [AD-1-61, (2Z)-2-(3-methoxybenzylidene)-3-oxo-2,3-dihydro-1-benzofuran-5-carboxylic acid]
[9]
  pIC50: < 3.60

## CN(C)c1ccc(/C=C2\Oc3ccc(C(=O)O)cc3C2=O)cc1 [AD-1-62, (2Z)-2-[4-(dimethylamino)benzylidene]-3-oxo-2,3-dihydro-1-benzofuran-5-carboxylic acid]
[9]
  pIC50: < 3.60

## Nc1ccc2c(c1)C(=O)/C(=C/c1cccc(Oc3ccccc3)c1)O2 [B1, (Z)-5-amino-2-(3-phenoxybenzylidene)benzofuran-3(2H)-one]
[3]
  MIC: 3.12 to 12.5 µM (≈ 1.03 to 4.12 µg/mL)
[4]
  MIC: 1.5 to 12.5 µM (≈ 0.494 to 4.12 µg/mL)
[5]
  MIC: 1.5 to 12.5 µM (≈ 0.494 to 4.12 µg/mL)
[6]
  MIC: 1.5 to 3.12 µM (≈ 0.494 to 1.03 µg/mL)
[7]
  MIC: 6.25 to 12.5 µM (≈ 2.06 to 4.12 µg/mL)

## CC(=O)Nc1ccc2c(c1)C(=O)/C(=C/c1ccc(OC(C)C)cc1)O2 [B5, (Z)-N-(2-(4-isopropoxybenzylidene)-3-oxo-2,3-dihydrobenzofuran-5-yl)acetamide]
[1]
  antimicrobial activity on tested strains (ranking): the more active
[2]
  antimicrobial activity, spectrum: confirmed the activity
[3]
  MIC: 3.12 to 12.5 µM (≈ 1.05 to 4.22 µg/mL)
[4]
  MIC: 1.5 to 12.5 µM (≈ 0.506 to 4.22 µg/mL)
[5]
  MIC: 1.5 to 12.5 µM (≈ 0.506 to 4.22 µg/mL)
[6]
  MIC: 1.5 to 3.12 µM (≈ 0.506 to 1.05 µg/mL)
[7]
  MIC: 6.25 to 12.5 µM (≈ 2.11 to 4.22 µg/mL)
[8]
  Therapeutic index (TI) or safe factor (SF): 38-4017
  mean of TI/SF: 103

## CC(=O)Nc1ccc2c(c1)C(=O)/C(=C/c1ccc(C(=O)O)cc1)O2 [C4, (Z)-4-((5-acetamido-3-oxobenzofuran-2(3H)-ylidene)methyl)benzoic acid]
[4]
  MIC: 1.5 to 12.5 µM (≈ 0.485 to 4.04 µg/mL)
[5]
  MIC: 1.5 to 12.5 µM (≈ 0.485 to 4.04 µg/mL)

## COc1c(C)c(O)c(C)c2c1C(=O)/C(=C/c1ccccc1)O2 [C10, (Z)-2-benzylidene-6-hydroxy-4-methoxy-5,7-dimethylbenzofuran-3(2H)-one]
[4]
  MIC: 1.5 to 12.5 µM (≈ 0.444 to 3.7 µg/mL)
[5]
  MIC: 1.5 to 12.5 µM (≈ 0.444 to 3.7 µg/mL)

## COc1ccc(/C=C2\Oc3cc(N)ccc3C2=O)cc1 [C11, (Z)-6-amino-2-(4-methoxybenzylidene)benzofuran-3(2H)-one]
[1]
  antimicrobial activity on tested strains (ranking): the more active
[2]
  antimicrobial activity, spectrum: confirmed the activity
[3]
  MIC: 3.12 to 12.5 µM (≈ 0.834 to 3.34 µg/mL)
[4]
  MIC: 1.5 to 12.5 µM (≈ 0.401 to 3.34 µg/mL)
[5]
  MIC: 1.5 to 12.5 µM (≈ 0.401 to 3.34 µg/mL)
[6]
  MIC: 1.5 to 3.12 µM (≈ 0.401 to 0.834 µg/mL)
[7]
  MIC: 6.25 to 12.5 µM (≈ 1.67 to 3.34 µg/mL)
[8]
  Therapeutic index (TI) or safe factor (SF): 38-4017
  mean of TI/SF: 355

## O=C1/C(=C/c2ccc(OCc3ccccc3)cc2OCc2ccccc2)Oc2ccccc21 [C12, (Z)-2-(2,4-bis(benzyloxy)benzylidene)benzofuran-3(2H)-one]
[1]
  antimicrobial activity on tested strains (ranking): the more active
[2]
  antimicrobial activity, spectrum: confirmed the activity
[3]
  MIC: 3.12 to 12.5 µM (≈ 1.36 to 5.43 µg/mL)
[4]
  MIC: 1.5 to 12.5 µM (≈ 0.652 to 5.43 µg/mL)
[5]
  MIC: 1.5 to 12.5 µM (≈ 0.652 to 5.43 µg/mL)
[8]
  Therapeutic index (TI) or safe factor (SF): 38-4017
  mean of TI/SF: 1169

## COc1cc(/C=C2\Oc3ccc(NC(C)=O)cc3C2=O)cc(OC)c1OC [D1, (Z)-N-(3-oxo-2-(3,4,5-trimethoxybenzylidene)-2,3-dihydrobenzofuran-5-yl)acetamide]
[3]
  MIC: 3.12 to 12.5 µM (≈ 1.15 to 4.62 µg/mL)
[4]
  MIC: 1.5 to 12.5 µM (≈ 0.554 to 4.62 µg/mL)
[5]
  MIC: 1.5 to 12.5 µM (≈ 0.554 to 4.62 µg/mL)
other
  melting point: 254 °C

## COc1ccc(/C=C2\Oc3ccccc3C2=O)cc1 [D10, (Z)-2-(4-methoxybenzylidene)benzofuran-3(2H)-one]
[3]
  MIC: 3.12 to 12.5 µM (≈ 0.787 to 3.15 µg/mL)
[4]
  MIC: 1.5 to 12.5 µM (≈ 0.378 to 3.15 µg/mL)
[5]
  MIC: 1.5 to 12.5 µM (≈ 0.378 to 3.15 µg/mL)
[6]
  MIC: 1.5 to 3.12 µM (≈ 0.378 to 0.787 µg/mL)
[7]
  MIC: 6.25 to 12.5 µM (≈ 1.58 to 3.15 µg/mL)

## O=C1/C(=C/c2ccc(Oc3ccc4oc(-c5ccccc5)cc(=O)c4c3)cc2)Oc2ccccc21 [E5, (Z)-6-(4-((3-oxobenzofuran-2(3H)-ylidene)methyl)phenoxy)-2-phenyl-4H-chromen-4-one]
[1]
  antimicrobial activity on tested strains (ranking): the more active
[2]
  antimicrobial activity, spectrum: confirmed the activity
[6]
  MIC: 1.5 to 3.12 µM (≈ 0.688 to 1.43 µg/mL)
[7]
  MIC: 6.25 to 12.5 µM (≈ 2.87 to 5.73 µg/mL)
[8]
  Therapeutic index (TI) or safe factor (SF): 38-4017
  mean of TI/SF: 852

## O=C(O)c1ccc2c(c1)C(=O)/C(=C/c1ccc(OCc3ccccc3)c(OCc3ccccc3)c1)O2 [MR1065, (Z)-2-(3,4-bis(benzyloxy)benzylidene)-3-oxo-2,3-dihydrobenzofuran-5-carboxylic acid]
[10]
  Therapeutic index (TI) or safe factor (SF): 712.82

## O=C(O)CCCCCOc1ccc(/C=C2\Oc3ccccc3C2=O)cc1 [MR1076, (Z)-6-(4-((3-oxobenzofuran-2(3H)-ylidene)methyl)phenoxy)hexanoic acid]
[11]
  antimicrobial activity: active
[9]
  pIC50: < 3.60

## cephalocerone
[12]
  growth inhibition: inhibit the growth

## hispidol
[13]
  inhibition of fungal pathogen: inhibit

## hispidol-4′-O-β-D-glucoside
[13]
  inhibition of fungal pathogen: inhibit

— patent publication US20230295103A1 (priority 2020, published 2023)
